Results reported in ChEMBL document CHEMBL1201862, “PubChem BioAssay data set” (2004).
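Step 1: Grow cells in 96-well plates. Step 2: Expose to compound for 48 hours at 5 concentrations. Step 3: Interpolate endpoints linearly; if unreached, use highest concentration. At the GI50, growth is halved.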 The source made the active and inactive calls. Cut-off read from the data, not from the text of the source: active = GI50 up to about 1.1 µM and inactive = higher.

Experiments:
Experiment in all cases: inhibition of tumour cell growth, NCI panel, 48 h
MOLT-4 = system: MOLT-4
NCI-H522 = system: NCI-H522
CAKI-1 = system: CAKI-1
NCI-H226 = system: NCI-H226
TK-10 = system: TK-10
UO-31 = system: UO-31
KM-20L2 = system: KM-20L2
HL-60 = system: HL-60
HT-29 = system: HT-29
SNB-19 = system: SNB-19
CCRF-CEM = system: CCRF-CEM
SK-OV-3 = system: SK-OV-3
COLO 205 = system: COLO 205
MDA-N = system: MDA-N
Malme-3M = system: Malme-3M
KM12 = system: KM12
HCT-116 = system: HCT-116
MDA-MB-435 = system: MDA-MB-435
HOP-62 = system: HOP-62
SK-MEL-2 = system: SK-MEL-2
DU-145 = system: DU-145
SF-295 = system: SF-295
SF-539 = system: SF-539
MDA-MB-231 = system: MDA-MB-231
Hs-578T = system: Hs-578T
SF-268 = system: SF-268
SK-MEL-5 = system: SK-MEL-5
HCT-15 = system: HCT-15
MCF7 = system: MCF7
786-0 = system: 786-0
A549 = system: A549
NCI-H23 = system: NCI-H23
UACC-257 = system: UACC-257
NCI/ADR-RES = system: NCI/ADR-RES
EKVX = system: EKVX
NCI-H460 = system: NCI-H460
ACHN = system: ACHN
SW-620 = system: SW-620
SK-MEL-28 = system: SK-MEL-28
OVCAR-8 = system: OVCAR-8
A498 = system: A498
SNB-75 = system: SNB-75
IGROV-1 = system: IGROV-1
K562 = system: K562
HCC 2998 = system: HCC 2998
RPMI-8226 = system: RPMI-8226
SR = system: SR
HOP-92 = system: HOP-92
PC-3 = system: PC-3
OVCAR-3 = system: OVCAR-3
U-251 = system: U-251
SN12C = system: SN12C
LOX IMVI = system: LOX IMVI
T47D = system: T47D
M14 = system: M14
OVCAR-5 = system: OVCAR-5
UACC-62 = system: UACC-62
OVCAR-4 = system: OVCAR-4
RXF 393 = system: RXF 393
BT-549 = system: BT-549

`O=C1C=C[C@@]23C[C@@H](NC4=C2C2=NCCc5c[nH]c(c52)C4=O)SC3=C1` [1-DEBROMODISCORHABDIN B] was tested, and the GI50 (MOLT-4) was 1.99 µM (inactive), the GI50 (NCI-H522) was 1.69 µM (inactive) and the GI50 (CAKI-1) was 17.7 µM (inactive). For the same compound, the GI50 (NCI-H226) was 14.6 µM (inactive), the GI50 (TK-10) was 14.6 µM (inactive) and the GI50 (UO-31) was 9.35 µM (inactive). For the same compound, the GI50 (KM-20L2) was 3.01 µM (inactive), the GI50 (HL-60) was 1.67 µM (inactive) and the GI50 (HT-29) was 2.22 µM (inactive). For the same compound, the GI50 (SNB-19) was 16.3 µM (inactive), the GI50 (CCRF-CEM) was 2.86 µM (inactive) and the GI50 (SK-OV-3) was 18.7 µM (inactive). For the same compound, the GI50 (COLO 205) was 1.55 µM (inactive), the GI50 (MDA-N) was 1.73 µM (inactive) and the GI50 (Malme-3M) was 1.25 µM (inactive). The GI50 (KM12) was 6.43 µM (inactive), the GI50 (HCT-116) was 1.75 µM (inactive) and the GI50 (MDA-MB-435) was 1.63 µM (inactive).
With `CN(C)CC1CN/C(=N\C(=O)Nc2ccccc2)O1` (stereo unspecified) the GI50 (HOP-62) was > 100 µM (inactive), the GI50 (SK-MEL-2) was > 100 µM (inactive) and the GI50 (DU-145) was > 100 µM (inactive). The GI50 (SF-295) was > 100 µM (inactive), the GI50 (MOLT-4) was > 100 µM (inactive) and the GI50 (NCI-H522) was > 100 µM (inactive). For the same compound, the GI50 (SF-539) was > 100 µM (inactive), the GI50 (MDA-MB-231) was > 100 µM (inactive) and the GI50 (Hs-578T) was > 100 µM (inactive). The GI50 (SF-268) was > 100 µM (inactive), the GI50 (CAKI-1) was > 100 µM (inactive) and the GI50 (SK-MEL-5) was > 100 µM (inactive). The GI50 (NCI-H226) was > 100 µM (inactive), the GI50 (HCT-15) was over 100 µM and the GI50 (MCF7) was > 100 µM (inactive). The GI50 (786-0) was > 100 µM (inactive), the GI50 (A549) was > 100 µM (inactive) and the GI50 (NCI-H23) was > 100 µM (inactive). The GI50 (UACC-257) was > 100 µM (inactive), the GI50 (NCI/ADR-RES) was > 100 µM (inactive) and the GI50 (EKVX) was > 100 µM (inactive). For the same compound, the GI50 (NCI-H460) was > 100 µM (inactive), the GI50 (ACHN) was > 100 µM (inactive) and the GI50 (TK-10) was > 100 µM (inactive). The GI50 (SW-620) was > 100 µM (inactive), the GI50 (UO-31) was > 100 µM (inactive) and the GI50 (SK-MEL-28) was > 100 µM (inactive). The GI50 (OVCAR-8) was > 100 µM (inactive), the GI50 (A498) was 42.3 µM (inactive) and the GI50 (SNB-75) was > 100 µM (inactive). For the same compound, the GI50 (IGROV-1) was > 100 µM (inactive), the GI50 (HL-60) was > 100 µM (inactive) and the GI50 (K562) was > 100 µM (inactive). The GI50 (HCC 2998) was > 100 µM (inactive), the GI50 (RPMI-8226) was > 100 µM (inactive) and the GI50 (SR) was > 100 µM (inactive). The GI50 (HOP-92) was > 100 µM (inactive), the GI50 (HT-29) was > 100 µM (inactive) and the GI50 (SNB-19) was > 100 µM (inactive). The GI50 (PC-3) was > 100 µM (inactive), the GI50 (CCRF-CEM) was > 100 µM (inactive) and the GI50 (OVCAR-3) was > 10 µM (inactive). For the same compound, the GI50 (U-251) was > 100 µM (inactive), the GI50 (SN12C) was > 100 µM (inactive) and the GI50 (LOX IMVI) was > 100 µM (inactive). The GI50 (SK-OV-3) was > 100 µM (inactive), the GI50 (T47D) was > 100 µM (inactive) and the GI50 (COLO 205) was > 100 µM (inactive). The GI50 (MDA-N) was > 100 µM (inactive), the GI50 (M14) was > 100 µM (inactive) and the GI50 (OVCAR-5) was > 100 µM (inactive). The GI50 (UACC-62) was > 100 µM (inactive), the GI50 (OVCAR-4) was > 100 µM (inactive) and the GI50 (Malme-3M) was > 100 µM (inactive). For the same compound, the GI50 (RXF 393) was > 100 µM (inactive), the GI50 (KM12) was > 100 µM (inactive) and the GI50 (BT-549) was > 100 µM (inactive). The GI50 (HCT-116) was > 100 µM (inactive) and the GI50 (MDA-MB-435) was > 100 µM (inactive).
For `CSc1nc(=O)c(C#N)c(-c2ccccc2)n1C1OC(COC(C)=O)C(OC(C)=O)C(OC(C)=O)C1OC(C)=O` (stereo unspecified), the GI50 (HOP-62) was > 100 µM (inactive), the GI50 (SK-MEL-2) was > 100 µM (inactive) and the GI50 (DU-145) was > 100 µM (inactive). The GI50 (SF-295) was > 100 µM (inactive), the GI50 (MOLT-4) was > 100 µM (inactive) and the GI50 (NCI-H522) was > 100 µM (inactive). The GI50 (SF-539) was > 100 µM (inactive), the GI50 (MDA-MB-231) was > 100 µM (inactive) and the GI50 (Hs-578T) was 39.8 µM (inactive). The GI50 (SF-268) was > 100 µM (inactive), the GI50 (CAKI-1) was > 100 µM (inactive) and the GI50 (SK-MEL-5) was 81.7 µM (inactive). For the same compound, the GI50 (NCI-H226) was > 100 µM (inactive), the GI50 (HCT-15) was over 100 µM and the GI50 (MCF7) was > 100 µM (inactive). For the same compound, the GI50 (786-0) was 82.6 µM (inactive), the GI50 (A549) was 69.3 µM (inactive) and the GI50 (NCI-H23) was > 100 µM (inactive). The GI50 (UACC-257) was > 100 µM (inactive), the GI50 (NCI/ADR-RES) was > 100 µM (inactive) and the GI50 (EKVX) was > 100 µM (inactive). For the same compound, the GI50 (NCI-H460) was 31.3 µM (inactive), the GI50 (ACHN) was > 100 µM (inactive) and the GI50 (TK-10) was > 100 µM (inactive). For the same compound, the GI50 (SW-620) was > 100 µM (inactive), the GI50 (UO-31) was 39.2 µM (inactive) and the GI50 (SK-MEL-28) was > 100 µM (inactive). The GI50 (OVCAR-8) was 60.5 µM (inactive), the GI50 (A498) was > 100 µM (inactive) and the GI50 (SNB-75) was 42.5 µM (inactive). For the same compound, the GI50 (IGROV-1) was > 100 µM (inactive), the GI50 (HL-60) was > 100 µM (inactive) and the GI50 (K562) was > 100 µM (inactive). For the same compound, the GI50 (HCC 2998) was > 100 µM (inactive), the GI50 (RPMI-8226) was > 100 µM (inactive) and the GI50 (SR) was > 100 µM (inactive). For the same compound, the GI50 (HOP-92) was 46.9 µM (inactive), the GI50 (HT-29) was > 100 µM (inactive) and the GI50 (SNB-19) was > 100 µM (inactive). For the same compound, the GI50 (PC-3) was 52.2 µM (inactive), the GI50 (CCRF-CEM) was 99.8 µM (inactive) and the GI50 (OVCAR-3) was 78.3 µM (inactive). For the same compound, the GI50 (U-251) was > 100 µM (inactive), the GI50 (SN12C) was > 100 µM (inactive) and the GI50 (LOX IMVI) was 98.4 µM (inactive). For the same compound, the GI50 (SK-OV-3) was > 100 µM (inactive), the GI50 (T47D) was 86.3 µM (inactive) and the GI50 (COLO 205) was > 100 µM (inactive). For the same compound, the GI50 (MDA-N) was > 100 µM (inactive), the GI50 (M14) was > 100 µM (inactive) and the GI50 (OVCAR-5) was > 100 µM (inactive). For the same compound, the GI50 (UACC-62) was > 100 µM (inactive), the GI50 (OVCAR-4) was > 100 µM (inactive) and the GI50 (Malme-3M) was 69.3 µM (inactive). For the same compound, the GI50 (RXF 393) was 94.4 µM (inactive), the GI50 (KM12) was > 100 µM (inactive) and the GI50 (BT-549) was > 100 µM (inactive). For the same compound, the GI50 (HCT-116) was 79.4 µM (inactive) and the GI50 (MDA-MB-435) was > 100 µM (inactive).
